EP0560274B1, “Antiherpes peptide derivatives having a ureido N-terminus” (priority 1992, dated 1993)
*1 amine or outer side, *2 acyl side, *3 side chain or, on linkers, in order; H or OH if unused. Where a SMILES comes first, the peptide text is derived from it. [ ]: non-standard residue; d: D form. The star is where a group is joined. Gly(1-adamantyl) = N[C@H](C(=O)O)C12CC3CC(CC(C3)C1)C2; Asp(3,3-(CH2)4) = N[C@H](C(=O)O)C1(C(=O)O)CCCC1; tBuAla = CC(C)(C)C[C@H](N)C(=O)O; Tle = CC(C)(C)[C@H](N)C(=O)O; NH(3-pentyl) = CCC(CC)N*; Pyrrolidide = C1CCN(*)C1; CO = O=C([*:1])[*:2]; X1 = CCCC1(N*)CCCC1; X4 = CCCC(CCC)N*

Test system: Herpes Simplex Virus (HSV-2)
Type: cell-based
Conditions: 29 h
Description: BHK-21/C13 cells (ATCC CCL 10) are incubated for two days in 150 cm^2 T-flasks (1.5 x 10^6 cells/flask) with alpha-MEM medium (Gibco Canada Inc., Burlington, Ontario, Canada) supplemented with 8% (v/v) fetal bovine serum (FBS, Gibco Canada Inc.). The cells are trypsinized and then transferred to fresh media in a 24 well plate to give 2.5 x 10^5 cells in 750 µL of media per well. The cells are incubated at 37° for a period of 6 h to allow them to adhere to the plate. Thereafter, the cells are washed once with 500 µL of alpha-MEM supplemented with 0.5% (v/v) FBS and then incubated with 750 µL of the same media (low serum) for 3 days. After this period of serum starvation, the low serum medium is removed and the cells are incubated in 500 µL of BBMT for 2 to 3 hours. {BBMT medium is described by P. Brazeau et al., Proc. Natl. Acad. Sci. USA, 79, 7909 (1982).} Thereafter, the cells are infected with HSV-2 (multiplicity of infection = 0.02 PFU/cell) in 100 µL of BBMT medium. (Note: The HSV-2 used was strain HG-52, see Y. Langelier and G. Buttin, J. Gen. Virol., 57, 21 (1981); the virus was stored at -80°.) Following 1 h of virus adsorption at 37°, the media is removed and the cells are washed with BBMT (3 X 250 µL). The cells in each well are incubated with or without (control) appropriate concentrations of the test agent dissolved in 200 µL of BBMT medium. After 29 h of incubation at 37°, the infected cells are harvested by first freezing the plate at -80°, followed by thawing. The cells in each well are scraped off the surface of the well with the help of the melting ice fragments. After complete thawing, the cell suspensions are collected and each well is rinsed with 150 µL of BBMT medium. The viral sample (suspension plus washing) is sonicated gently for 4 min at 4°. Cell debris are removed by centrifugation (1000 times gravity for 10 minutes at 4°). The supernatant is collected and stored at -80° until determination of viral titer.
Viral titration was performed by a modification of the colorimetric assay method of M. Langlois et al., Journal of Biological Standardization, 14, 201 (1986).
More specifically, in a similar manner as described above, BHK-21/C13 cells are trypsinized and transferred to fresh media in a 96 well microtiter plate to give 20,000 cells in 100 µL of media per well. The cells in the prepared plate are incubated at 37° for, 2 h. During that time, the viral sample is thawed and sonicated gently for 15 seconds, and log dilutions of the sample are prepared (1/5 sequential: 50 µL of the sample plus 200 µL of BBMT medium, sequential dilutions being done with a multichannel pipette.
On completion of the above 2 hour incubation of the BHK-21/C13 cells, the media is replaced with alpha-MEM medium supplemented with 3% (v/v) FBS. The cells are now ready to be infected with the various sample dilutions of virus. Aliquots (50 µL) of the various dilutions are transferred into the appropriate wells of the plate. The resulting infected cells are incubated for 2 days at 37°. Then 50 µL of a 0.15% (v/v) solution of neutral red dye in Hank's Balanced Salt Solution (pH 7.3, Gibco Canada Inc.) is added to each well. The prepared plate is incubated for 45 min at 37°. Medium from each well is then aspirated and the cells are washed once with 200 µL of Hank's Balanced Salt Solution. After the wash, the dye is released from the cells by the addition of 100 µL of a 1:1 mixture of 0.1 M Sorensen's citrate buffer (pH 4.2) and ethanol. {Sorensen's citrate buffer is prepared as follows: Firstly, a 0.1 M disodium citrate solution is prepared by dissolving citric acid monohydrate (21 g) in 1 N aqueous NaOH (200 mL) and adding sufficient filtered H2O to make 1 L. Secondly, the 0.1 M disodium citrate solution (61.2 mL) is mixed with 0.1 N aqueous HCl (38.8 mL) and the pH of the resulting solution is adjusted to 4.2 if necessary.} The mixture in the wells is subjected to a gentle vortex action to ensure proper mixing.

SMILES	EC50
CCC(CC)NC(=O)N[C@H](C(=O)N[C@@H](CC(=O)N1CCCC1)C(=O)N[C@H](C(=O)N[C@H](CO)CC(C)(C)C)C1(C(=O)O)CCCC1)C12CC3CC(CC(C3)C1)C2 [Et2CHNHC(O)-NH-(S)-CH(adamantyl)-C(O)-Asp(pyrrolidino)-Asp(cyPn)-γMeLeucinol]	170 µM
CCCC1(NC(=O)N[C@H](C(=O)N[C@@H](CC(=O)N2CCCC2)C(=O)N[C@H](C(=O)N[C@@H](CC(C)(C)C)C(=O)OCC)C2(C(=O)O)CCCC2)C(C)(C)C)CCCC1 [(1-propylcyclopentyl)-NHC(O)-Tbg-Asp(pyrrolidino)-Asp(cyPn)-γMeLeu-OEt] ({X1-CO}-[Tle]D(Pyrrolidide)[Asp(3,3-(CH2)4)][tBuAla]-OEt)	45 µM
CCCC(CCC)NC(=O)N[C@H](C(=O)N[C@@H](CC(=O)N1CCCC1)C(=O)N[C@H](C(=O)N[C@@H](CC(C)(C)C)C(=O)O)C1(C(=O)O)CCCC1)C(C)(C)C [Pr2CHNHC(O)-Tbg-Asp(pyrrolidino)-Asp(cyPn)-γMeLeu-OH] ({X4-CO}-[Tle]D(Pyrrolidide)[Asp(3,3-(CH2)4)][tBuAla]-OH)	80 µM
CCC(CC)NC(=O)N[C@H](C(=O)N[C@@H](CC(=O)N1CCCC1)C(=O)N[C@H](C(=O)N[C@@H](CC(C)(C)C)C(=O)O)C1(C(=O)O)CCCC1)C12CC3CC(CC(C3)C1)C2 [Et2CHNHC(O)-NH-(S)-CH(adamantyl)-C(O)-Asp(pyrrolidino)-Asp(cyPn)-γMeLeu-OH] ({NH(3-pentyl)-CO}-[Gly(1-adamantyl)]D(Pyrrolidide)[Asp(3,3-(CH2)4)][tBuAla]-OH)	170 µM
CCCC(CCC)NC(=O)N[C@H](C(=O)N[C@@H](CC(=O)N1CCCC1)C(=O)N[C@H](C(=O)N[C@H](CO)CC(C)(C)C)C1(C(=O)O)CCCC1)C(C)(C)C [Title Compound of Example 8, Pr2CHNHC(O)-Tbg-Asp(pyrrolidino)-Asp(cyPn)-γMeLeucinol]	75 µM
CCC(CC)NC(=O)N[C@H](C(=O)N[C@@H](CC(=O)N1CCCC1)C(=O)N[C@H](C(=O)N[C@H](CO)CC(C)(C)C)C1(C(=O)O)CCCC1)C(C)(C)C [Et2CHNHCO-Tbg-Asp(pyrrolidino)-Asp(cyPn)-γMeLeucinol]	170 µM
CCC(CC)NC(=O)N[C@H](C(=O)N[C@@H](CC(=O)N1CCCC1)C(=O)N[C@H](C(=O)NCCC(C)(C)C)C1(C(=O)O)CCCC1)C(C)(C)C [Et2CHNHC(O)-Tbg-Asp(pyrrolidino)-Asp(cyPn)-NHCH2CH2CMe3]	350 µM
CCCC(CCC)NC(=O)N[C@H](C(=O)N[C@@H](CC(=O)C1CCCCC1)C(=O)N[C@H](C(=O)NCC(C)(C)C)C1(C(=O)O)CCCC1)C(C)(C)C [Pr2CHNHC(O)-Tbg-NHCH(2-cyclohexyl-2-oxoethyl)C(O)-Asp(cyPn)-NHCH2CMe3]	140 µM
CCC(CC)NC(=O)N[C@H](C(=O)N[C@@H](CC(=O)N1CCCC1)C(=O)N[C@H](C(=O)NCC(C)(C)C)C1(C(=O)O)CCCC1)C(C)(C)C [Et2CHNHC(O)-Tbg-Asp(pyrrolidino)-Asp(cyPn)-NHCH2CMe3]	270 µM
CCC(CC)NC(=O)N[C@H](C(=O)N[C@@H](CC(=O)N1CCCC1)C(=O)N[C@H](C(=O)N[C@@H](CC(C)(C)C)C(=O)O)[C@H](C(=O)O)C(C)C)C(C)(C)C [Et2CHNHC(O)-Tbg-Asp(pyrrolidino)-Asp{(R)-iPr}-γMeLeu-OH]	190 µM
CCCC(C)(CCC)NC(=O)N[C@H](C(=O)N[C@@H](CC(=O)N1CCCC1)C(=O)N[C@H](C(=O)NCC(C)(C)C)C1(C(=O)O)CCCC1)C(C)(C)C [MePr2CNHC(O)-Tbg-Asp(pyrrolidino)-Asp(cyPn)-NHCH2CMe3]	84 µM
CCCC(CCC)NC(=O)N[C@H](C(=O)N[C@@H](CC(=O)C1CCC1)C(=O)N[C@H](C(=O)NCC(C)(C)C)C1(C(=O)O)CCCC1)C(C)(C)C [Pr2CHNHC(O)-Tbg-NH-(S)-CH(2-cyclobutyl-2-oxoethyl)C(O)-Asp(cyPn)-NHCH2CMe3]	160 µM
CC(C)NC(=O)N[C@H](C(=O)N[C@@H](CC(=O)N1CCCC1)C(=O)N[C@H](C(=O)N[C@H](CO)CC(C)(C)C)C1(C(=O)O)CCCC1)C(C)(C)C [Me2CHNHC(O)-Tbg-Asp(pyrrolidino)-Asp(cyPn)-γMeLeucinol]	700 µM
CCCC(CC)(CCC)NC(=O)N[C@H](C(=O)N[C@@H](CC(=O)N1CCCC1)C(=O)N[C@H](C(=O)N[C@H](CC)C(C)(C)C)C1(C(=O)O)CCCC1)C(C)(C)C [EtPr2CNHC(O)-Tbg-Asp(pyrrolidino)-Asp(cyPn)NH-(R)-CH(Et)CMe3]	7 µM
CCC(CC)NC(=O)N[C@H](C(=O)N[C@@H](CC(=O)N1CCCC1)C(=O)N[C@H](C(=O)N[C@H](CO)CC(C)(C)C)[C@H](C(=O)O)C(C)C)C(C)(C)C [Et2CHNHC(O)-Tbg-Asp(pyrrolidino)-Asp{(R)-iPr}-γMeLeucinol]	140 µM
